Measurements published in publication PMC5380659, “Unique charge-dependent constraint on collagen recognition by integrin α10β1” (Matrix Biology, 2017).
Entries after “also recorded” stand apart in the source; their conditions may differ.

Assays:
integrin α1β1 = tested on: integrin α1β1; parameters: method as in 3 sources, ref [4]; PMID 19693543; doi:10.1007/s00441-009-0834-6; 4 Barczyk M. Carracedo S. Gullberg D. Integrins Cell Tissue Res. 339 1 2010 269 280 19693543 10.1007/s00441-009-0834-6 PMC2784866 ||| ref [12] = [12]; PMID 22654115; doi:10.1074/jbc.M112.353144; 12 Hamaia S.W. Pugh N. Raynal N. Nemoz B. Stone R. Gullberg D. Bihan D. Farndale R.W. Mapping of potent and specific binding motifs, GLOGEN and GVOGEA, for integrin alpha1beta1 using collagen toolkits ||| ref not given; conditions: cited from earlier work
Source text: The collagen-binding integrin family is complete, with four established members, α1β1, α2β1, α10β1 and α11β1. These are highly-conserved, heterodimeric receptors with an important structural feature in common, the presence of an I (inserted) domain which contains the metal ion-dependent adhesion site (MIDAS). The MIDAS is a constellation of electronegative residues at the distal surface of this 200-residue domain that, in the resting, non-ligated state, can co-ordinate a Mg^2 + ion. […] Many related motifs have now been identified using the Collagen Toolkits developed in this laboratory for the purpose. These are libraries of overlapping peptides of 27 amino acids of collagen primary sequence (guest sequence), flanked ... || Why would collagen II differ in this respect?

α1-Q214R I domain = assay: SPBA of α1-Q214R mutant I domain; type: binding, human; conditions: Gln214 replaced with Arg, Fig. 8D
Source text: (§1) To test this hypothesis, we replaced the corresponding Q214 and Q215 in α1 and α2 I domains, respectively, with R, as in α10, and we replaced the R215 in the α10 I domain with Q, as in α1 and α2.
(§2) Fig. 8 Arginine substitution of I domain surface reduces binding to Toolkit peptide III-4. Wild type I domain from α1, α2 and α10 were allowed to adhere to Toolkit peptide III-4 that contains GROGER, as described in Fig. 1, and binding is shown in A, B and C, respectively. In D and E, the natural glutamine residues of α1, Q214, and of α2, Q215, was replaced with arginine. In F, the natural arginine, R215, of α10 was replaced with glutamine.
(§3) pGEX-2T-α1, α2 and α10 I were used to generate the Q to R or R to Q mutations using QuikChange PCR kit from Stratagene (200518).
I domain adhesion was determined colorimetrically, as described, here termed solid phase binding assay (SPBA). Peptides were coated at 10 μg/ml for 1 h at 22 °C on Immulon-2 HB 96-well plates (Thermo Life Sciences, Basingstoke, UK), and blocked for 1 h with 200 μl of TBS containing 50 mg/ml bovine serum albumin. Wells were washed four times with 200 μl of the adhesion buffer (TBS with 1 mg/ml bovine serum albumin) before adding 100 μl of adhesion buffer containing 10 μg/ml of recombinant GST I domains in the presence of either 2 mM MgCl2 or EDTA for 1 h at room temperature. […]

C2C12-α10β1 cells = assay: xCELLigence real-time adhesion of C2C12-α10β1 cells; type: cell-based, mouse; conditions: up to 1 h, compared with GPP10 negative control, Fig. 6C
Protocol: Fig. 3 Binding of α10β1-transfected C2C12 cells to collagens and selected Toolkit peptides. Peptides or collagens were coated on ePlates as described, then cells were added in the presence of 2 mM Mg^2 + or EDTA, and Cell Index value was collected over 1 h. […] B: time courses are shown of adhesion to selected Toolkit peptides or GPP-10.
To quantitate C2C12-α10β1 binding to collagen peptides, we used the impedance-based xCELLigence system (Acea) that allows label-free, dynamic monitoring of cell adhesion in real-time. The assay system expresses the adhesion-dependent rise in well impedance in units of cell index (CI), defined as (Rn − Rb) / 15; where Rn is the electrical impedance of each cell-containing well and Rb is the background impedance of the well with medium alone
Briefly, C2C12 cells were seeded at 2.5 × 10^4 cells/well in an E-plate (Roche Applied Science) pre-coated with peptides as for SPBA, and CI was measured for up to 2 h.

α2-Q215R I domain = assay: SPBA of α2-Q215R mutant I domain; type: binding, human; conditions: Gln215 replaced with Arg, Fig. 8E
Source text: as §1, §2, §3
To express α2 wild type and mutant I domains, a 100-ml overnight culture of transformants (Origami strain) was used to inoculate 1 L of Luria broth containing 100 μg/ml ampicillin, 15 μg/ml Kanamycin and 12.5 μg/ml Tetracyclin. The culture was grown for 2 h at 37 °C and then induced at room temperature for 4 h with isopropyl β-D-thiogalactopyranoside (0.1 mM, Melford Laboratories, UK, #MB1008). […]
I domain adhesion was determined colorimetrically, as described, here termed solid phase binding assay (SPBA). […]

C2C12-α1β1 cells = assay: xCELLigence real-time adhesion of C2C12-α1β1 cells; type: cell-based, mouse; conditions: up to 1 h, compared to GFOGER, Fig. 6A
C2C12-α11β1 cells = assay: xCELLigence real-time adhesion of C2C12-α11β1 cells; type: cell-based, mouse; conditions: up to 1 h, compared to GFOGER, Fig. 6D

For GLOGEN [short THP containing GLOGEN], the “Affinity for integrin α1β1” value (integrin α1β1; ref [12]) is listed as “high-affinity ligand” and the “Affinity for integrin α1β1, discussion” value (integrin α1β1; ref not given) is listed as “high-affinity site”.

With “GROGER [short triple-helical peptide containing GROGER]” the “Binding of α1-Q214R I domain” value (α1-Q214R I domain) was “impaired their binding; also recorded: failed to bind; also recorded: collapse of binding”, the “Cell adhesion to short THPs (time course)” value (C2C12-α10β1 cells) was “poor binding; also recorded: of comparable level to the GPP10 negative control peptide” and the “Binding of α2-Q215R I domain” value (α2-Q215R I domain) was “impaired their binding; also recorded: failed to bind; also recorded: collapse of binding”. The “Adhesion of C2C12-α1β1 cells to short THP (time course)” value (C2C12-α1β1 cells) was “bound quite well” and the “Adhesion of C2C12-α11β1 cells to short THP (time course)” value (C2C12-α11β1 cells) was “bound quite well”.
